In patent US8945632B2, “Methods and compositions for inhibiting the nuclear factor κB pathway” (Ben Gurion University of the Negev R&D Authority, priority 2010, dated 2015):

What was measured:
[1] = tested on: B16 melanoma cells in C57BL/6 mice; assay: Experimental lung metastasis of B16 melanoma cells; format: in vivo; conditions: NUP 20 mg/kg or cisplatin 4 mg/kg, day 0 to day 14, lungs excised day 18
Method: C57BL/6 mice were treated with an intravenous injection of B16 melanoma cells (3*10^5 cells/[…]). […] Control animals received only vehicle. Lungs were excised on day 18. Metastatic nodules are black (FIG. 11).

[2] = tested on: L428 cells; assay: XTT cell survival, NUP combined with chemotherapeutic drugs; format: cell-based, human; conditions: Bortezomib 0.9 ng/ml, same conditions, data not shown

## N.N.[Cl][Pt][Cl] [cisplatin]
[1]
  Number of lung metastatic nodules, single agent: reduced the number of lung metastatic nodules

## CC(C)C[C@H](NC(=O)[C@H](Cc1ccccc1)NC(=O)c1cnccn1)B(O)O [Bortezomib]
[2]
  Combined effect on cell survival with NUP: additive to NUP and not synergistic
